Read-outs that look alike come from different tables or passages of the source.
Tests used:
SFRP-1 [1] = target: T1, SFRP-1 (Homo sapiens, UniProt Q8N474); test: Fluorescence polarization binding assay (competitive displacement of a probe compound from SFRP-1); details: fluorescence anisotropy, 45 nM SFRP-1, 20 nM probe;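 further: test compound competes with a fluorescent probe held by SFRP-1, seen as a drop in probe anisotropy after incubation in darkness, with anisotropy as function of rising compound dose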
T1 sequence (Q8N474 32-314): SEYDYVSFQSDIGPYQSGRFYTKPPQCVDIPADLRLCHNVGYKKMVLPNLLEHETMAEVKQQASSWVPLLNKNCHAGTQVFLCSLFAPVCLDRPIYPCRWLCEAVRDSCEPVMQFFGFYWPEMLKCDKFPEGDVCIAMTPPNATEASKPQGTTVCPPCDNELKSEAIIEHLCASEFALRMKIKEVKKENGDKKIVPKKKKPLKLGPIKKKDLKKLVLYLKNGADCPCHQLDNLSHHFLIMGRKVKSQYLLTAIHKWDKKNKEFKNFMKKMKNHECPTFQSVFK

SFRP-1 [2] = target: T1, SFRP-1; test: Cell-based assay for in vitro measurement of SFRP-1/SARP2 antagonist activity (U2OS cells co-transfected with 16x TCF-tk-Luciferase reporter, Wnt and hSFRP-1); details: for fold induction at 10 µM / fold induction at 15 µM: U2OS; for fold induction at 10 µM: read-out: Fold Induction with SFRP-1, U2OS cells, single dose 10 μM, luciferase reporter, fold induction over SFRP-1 control;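 on all read-outs here: U2OS cells co-transfected with a TCF-tk luciferase reporter, a Wnt vector, hSFRP-1 or empty vector and CMV-βgal, luciferase luminescence read in cell lysates alongside βgal activity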
[3] = read-out: Fold Induction with SFRP-1, Conc 15 μM, single dose, luciferase reporter, fold induction over SFRP-1 control, cells with SFRP-1
[4] = read-out: Fold Induction without SFRP-1, Conc 15 μM, single dose, luciferase reporter, cells without SFRP-1 (specificity control)
[5] = read-out: Fold Induction with SFRP-1, Conc 15 μM, with SFRP-1, fold induction over SFRP-1 control, single dose
[6] = read-out: Fold Induction without SFRP-1, Conc 15 μM, without SFRP-1, single dose

Q: Which IC50 (SFRP-1 [1]) does the source give for `CC(C)c1ccc(S(=O)(=O)c2ccccc2)cc1S(=O)(=O)NCc1ccncc1` [Example 936, 2-isopropyl-5-(phenylsulfonyl)-N-(pyridin-4-ylmethyl)benzenesulfonamide] here?
A: The IC50 was 3000 nM.

Q: And the EC50 (SFRP-1 [2])?
A: The EC50 was 1820 nM.

Q: What about the fold induction at 10 µM (SFRP-1 [2]) of the same compound?
A: Its fold induction at 10 µM is 2.7.

Q: Which IC50 (SFRP-1 [1]) does the source give for `Cc1ccc(S(=O)(=O)c2ccc(F)cc2)cc1S(=O)(=O)NC1CCN(C(=O)N(C)C)CC1` [Example 587, 4-[({5-[(4-fluorophenyl)sulfonyl]-2-methylphenyl}sulfonyl)amino]-N,N-dimethylpiperidine-1-carboxamide] here?
A: Its IC50 is 5000 nM.

Q: What about the fold induction at 15 µM (SFRP-1 [2]; [3]) of the same compound?
A: Its fold induction at 15 µM is 1.2.

Q: What about the fold induction at 15 µM (SFRP-1 [2]; [4]) of the same compound?
A: Its fold induction at 15 µM is 1.2.

Q: What does the source list for `CN(CCNS(=O)(=O)c1cc(S(=O)(=O)c2ccccc2)ccc1C(F)(F)F)C(=O)CCC(=O)O` [Example 897, 4-{methyl[2-({[5-(phenylsulfonyl)-2-(trifluoromethyl)phenyl]sulfonyl}amino)ethyl]amino}-4-oxobutanoic acid]?
A: IC50 (SFRP-1 [1]): 500 nM; EC50 (SFRP-1 [2]): 1360 nM; fold induction at 10 µM (SFRP-1 [2]): 2.7

Q: `CN(CCCNS(=O)(=O)c1cc(S(=O)(=O)c2ccccc2)ccc1C(F)(F)F)C(=O)N1CCNCC1` [Example 975, N-methyl-N-[3-({[5-(phenylsulfonyl)-2-(trifluoromethyl)phenyl]sulfonyl}amino)propyl]piperazine-1-carboxamide] was tested. Which IC50 (SFRP-1 [1]) did it give?
A: Its IC50 is 1500 nM.

Q: What about the EC50 (SFRP-1 [2]) of the same compound?
A: Its EC50 is 5700 nM.

Q: Which IC50 (SFRP-1 [1]) does the source give for `CC(=O)c1cccc(S(=O)(=O)c2ccc(C(C)C)c(S(=O)(=O)NCCc3ccccn3)c2)c1C` [Example 594, 5-[(3-acetyl-2-methylphenyl)sulfonyl]-2-isopropyl-N-(2-pyridin-2-ylethyl)benzenesulfonamide] here?
A: The IC50 was 4000 nM.

Q: What about the fold induction at 15 µM (SFRP-1 [2]; [3]) of the same compound?
A: Its fold induction at 15 µM is 2.3.

Q: What about the fold induction at 15 µM (SFRP-1 [2]; [4]) of the same compound?
A: The fold induction at 15 µM was 1.

Q: Which results are given for `CC(C)c1ccc(S(=O)(=O)c2ccc(F)cc2)cc1S(=O)(=O)NCCc1ccncc1` [Example 533, 5-[(4-fluorophenyl)sulfonyl]-2-isopropyl-N-(2-pyridin-4-ylethyl)benzenesulfonamide]?
A: IC50 (SFRP-1 [1]): 500 nM; fold induction at 15 µM (SFRP-1 [2]; [3]): 3.7; fold induction at 15 µM (SFRP-1 [2]; [4]): 1.1

Q: How did the IC50 (SFRP-1 [1]) turn out when `O=C(O)CCNS(=O)(=O)c1cc(S(=O)(=O)c2ccccc2)ccc1C(F)(F)F` [Example 889, N-{[5-(phenylsulfonyl)-2-(trifluoromethyl)phenyl]sulfonyl}-[…]-alanine] was run?
A: Its IC50 is 4000 nM.

Q: And the fold induction at 10 µM (SFRP-1 [2])?
A: The fold induction at 10 µM was 1.3.

Q: Which IC50 (SFRP-1 [1]) does the source give for `CC(C)c1ccc(S(=O)(=O)c2ccc(F)cc2)cc1S(=O)(=O)NC1CCN(C(=S)Nc2cccc(C(=O)O)c2)CC1` [Example 700, 3-[({4-[({5-[(4-fluorophenyl)sulfonyl]-2-isopropylphenyl}sulfonyl)amino]piperidin-1-yl}carbonothioyl)amino]benzoic acid] here?
A: The IC50 was 500 nM.

Q: What about the EC50 (SFRP-1 [2]) of the same compound?
A: The EC50 was 397 nM.

Q: And the fold induction at 10 µM (SFRP-1 [2])?
A: The fold induction at 10 µM was 1.7.

Q: Which results are given for `CC[C@H](C)C(CO)Nc1ccc(S(=O)(=O)c2ccc(C(C)C)c(S(=O)(=O)NCCn3ccnc3)c2)cc1` (stereo partly drawn) [Example 453, 5-[(4-{[(2S)-1-(hydroxymethyl)-2-methylbutyl]amino}phenyl)sulfonyl]-N-[2-(1H-imidazol-1-yl)ethyl]-2-isopropylbenzenesulfonamide]?
A: IC50 (SFRP-1 [1]): 300 nM; fold induction at 15 µM (SFRP-1 [2]; [5]): 4; fold induction at 15 µM (SFRP-1 [2]; [6]): 1.1

Q: For `CC(C)c1ccc(S(=O)(=O)c2ccc3[nH]ccc3c2)cc1S(=O)(=O)NCCc1ccccn1` [Example 540, 5-(1H-indol-5-ylsulfonyl)-2-isopropyl-N-(2-pyridin-2-ylethyl)benzenesulfonamide], which IC50 (SFRP-1 [1]) is on record?
A: Its IC50 is 200 nM.

Q: And the fold induction at 15 µM (SFRP-1 [2]; [3])?
A: The fold induction at 15 µM was 3.6.

Q: What about the fold induction at 15 µM (SFRP-1 [2]; [4]) of the same compound?
A: Its fold induction at 15 µM is 1.2.

Q: What does the source list for `COc1cccc(S(=O)(=O)c2ccc(C(F)(F)F)c(S(=O)(=O)NCCc3cccnc3)c2)c1` [Example 747, 5-[(3-methoxyphenyl)sulfonyl]-N-(2-pyridin-3-ylethyl)-2-(trifluoromethyl)benzenesulfonamide]?
A: IC50 (SFRP-1 [1]): 90 nM; EC50 (SFRP-1 [2]): 779 nM; fold induction at 10 µM (SFRP-1 [2]): 5.7

Q: With `Cc1ccc(S(=O)(=O)c2ccc(C(C)(C)C)cc2)cc1S(=O)(=O)NC1CCOCC1` [Example 440, 5-[(4-tert-butylphenyl)sulfonyl]-2-methyl-N-(tetrahydro-2H-pyran-4-yl)benzenesulfonamide] as the compound, how does the IC50 (SFRP-1 [1]) read?
A: Its IC50 is 3000 nM.

Q: What about the fold induction at 15 µM (SFRP-1 [2]; [5]) of the same compound?
A: The fold induction at 15 µM was 1.8.

Q: And the fold induction at 15 µM (SFRP-1 [2]; [6])?
A: The fold induction at 15 µM was 1.1.
